According to the SangsterLogP compilation:

Test: method code SF-HPLC, from DOI: 10.1016/s0968-0896(00)00015-8, PMID: 10819159
Details: pH 7.4

SMILES | logD
Nc1ccc(S(=O)(=O)N(COC(=O)c2ccccc2)c2cncs2)cc1 | 1.47
Nc1ccc(S(=O)(=O)N(COC(=O)c2ccccc2)c2ncccn2)cc1 | 2.15
CCOC(=O)CN(C)C(=O)OCN(c1ccc([N+](=O)[O-])cc1Oc1ccccc1)S(C)(=O)=O | 2.2
Cc1cc(C)nc(N(COC(=O)c2ccccc2)S(=O)(=O)c2ccc(N)cc2)n1 | 3.59
Cc1noc(N(COC(=O)c2ccccc2)S(=O)(=O)c2ccc(N)cc2)c1C | 2.83
CS(=O)(=O)N(COC(=O)c1ccccc1)c1ccc([N+](=O)[O-])cc1Oc1ccccc1 | 3.97
COC(=O)C1CCCN1C(=O)OCN(c1ccc([N+](=O)[O-])cc1Oc1ccccc1)S(C)(=O)=O (stereo not given) | 2.85
CCOC(=O)CNC(=O)OCN(c1ccc([N+](=O)[O-])cc1Oc1ccccc1)S(C)(=O)=O | 2.28
Cc1cc(C)nc(N(COC(=O)C(C)(C)C)S(=O)(=O)c2ccc(N)cc2)n1 | 3.07
CC(C)(C)C(=O)OCN(Nc1ccc([N+](=O)[O-])cc1Oc1ccccc1)S(C)(=O)=O | 3.96
